Data on two compounds can be found in patent US20180036302A1, “TREATMENT OF MULTIPLE SCLEROSIS WITH COMBINATION OF LAQUINIMOD AND A STATIN” (Teva Pharmaceutical Industries Ltd., priority 2014, published 2018).

Data set [1] has as its system MOG induced chronic Experimental Autoimmune Encephalomyelitis (EAE) model. In words: MOG induced chronic EAE in C57Bl/6 mice. The note with it: for % inhibition 1 (incidence) / % inhibition 2 (MMS) / % inhibition 3 (GMS): vs vehicle. The data set is classed as in vivo.
A further data set can be described thus: in vivo. The note with it: male, C57BL/6, mouse, po, 5 mg/kg. The method, then: For all PO administration groups: 1% MC in water (all PO formulations were made just prior to use).
Fasted overnight and fed 4 hr post dose, free access to water
• 1. For plasma samples: An aliquot of 30 μL plasma sample was added with 150 μL ACN which contains IS (Dexamethasane 40 ng/mL, 5 ng/mL) for protein precipitation. The mixture was vortexed for 2 rain and centrifuged at 12000 rpm for 5 min. The 2 μL supernatant was injected into LC-MS/MS. • 2. For diluted plasma samples: An aliquot of 10 μL plasma sample was added with 90 μL blank plasma to obtain the diluted plasma samples, and the sample dilution factor is 10. An aliquot of 10 μL 10-folder-diluted plasma sample was added with 40 μL blank plasma to obtain the diluted plasma samples, and the sample dilution factor is 50. The exaction procedure for diluted samples was same as those for non-diluted samples.
The animals were restrained manually at the designated time points. Approx. 150 μL of blood samples were taken from the animals into K2EDTA tubes via retro-orbital puncture or cardiac puncture for terminal bleeding under anesthesia with Isoflurane. Blood sample was put on ice and centrifuged at 2000 g for 5 min (4° C.) to obtain plasma sample within 15 minutes. Plasma samples were snap frozen by placing into dry-ice.
The plasma samples were stored at approximately −70° C. until analysis. The backup samples are discarded after two months unless specified. The unused dosing solutions are discarded within 1 week after completion of the study.

The conditions of data set [2]: in vivo; cited from earlier work.
The next data set concerns Multiple Sclerosis. Conditions: two phase III trials; cited from earlier work.
The mark [3] stands for this setting: Atorvastatin 10 mg/kg BID gavage, Day 1-30.
Where [4] appears, read: Atorvastatin 50 mg/kg BID gavage, Day 1-30.
[5] abbreviates: Laquinimod 5 mg/kg/day gavage, Day 1-30.
The mark [6] stands for this setting: Laquinimod 25 mg/kg/day gavage, Day 1-30.

`CC(C)c1c(C(=O)Nc2ccccc2)c(-c2ccccc2)c(-c2ccc(F)cc2)n1CC[C@@H](O)C[C@@H](O)CC(=O)O` [Atorvastatin, atorvastatin]: in data set [1] (setting [3]), the “Duration” value was determined as 18.1 ± 2.1 days, the GMS value is 2.5 ± 0.6, the Incidence is given as 15/15 and the MMS value amounted to 3.6 ± 0.5. For the same compound, in data set [1] (setting [3]), the “Onset” value was 12.4 ± 1.2 days, the “% inhibition 1 (incidence)” value turned out to be 0%, the “% inhibition 2 (MMS)” value is 2.7% and the “% inhibition 3 (GMS)” value amounted to 7.4%. Also, in data set [1] (setting [4]), the “Duration” value is recorded as 17.2 ± 4.9 days, the GMS value is on record as 2.3 ± 0.7, the Incidence was 14/15 and the MMS value was found to be 3.3 ± 1.0. For the same compound, in data set [1] (setting [4]), the “Onset” value turned out to be 13.8 ± 4.9 days, the “% inhibition 1 (incidence)” value worked out at 6.7%, the “% inhibition 2 (MMS)” value worked out at 10.8% and the “% inhibition 3 (GMS)” value stood at 14.8%. The Mortality in data set [1] (mouse, in vivo) was 0/15.
For `CCN(C(=O)c1c(O)c2c(Cl)cccc2n(C)c1=O)c1ccccc1` [Laquinimod], in data set [1] (setting [5]), the “Duration” value is 13.5 ± 7.9 days, the GMS value is 1.4 ± 1.0, the Incidence is on record as 12/15 and the MMS value is 2.3 ± 1.3. For the same compound, in data set [1] (setting [5]), the Mortality is listed as 0/15, the “Onset” value was 16.3 ± 7.7 days, the “% inhibition 1 (incidence)” value is on record as 20% and the “% inhibition 2 (MMS)” value is recorded as 37.8%. Moreover, the “% inhibition 3 (GMS)” value in data set [1] (setting [5]) came out at 48.1%. In data set [1] (setting [6]), the “Duration” value came to 4.1 ± 6.0 days, the GMS value amounted to 0.3 ± 0.6, the Incidence is given as 5/15 and the MMS value is recorded as 0.7 ± 1.0. Also, in data set [1] (setting [6]), the Mortality is given as 0/15, the “Onset” value worked out at 25.63 ± 7.5 days, the “% inhibition 1 (incidence)” value stood at 66.7% and the “% inhibition 2 (MMS)” value was determined as 81.1%. Also, the “% inhibition 3 (GMS)” value in data set [1] (setting [6]) came to 91.9%. Further, in the data set “in vivo”, the AUCINF was 71465 ng·h/mL and the AUClast amounted to 71302 ng·h/mL. The same compound displayed an area under the curve AUC(0-inf) in “in vivo” (AUCINF) of 86900 ng·h/mL. Moreover, the area under the curve AUC(0-t) in the data set “in vivo” (AUClast) turned out to be 86700 ng·h/mL. This compound yielded a Cmax in the data set “in vivo” (Cmax) of 31100 ng/mL. The half-life in “in vivo” (Terminal t1/2) is 3.01 h. Moreover, the Tmax in “in vivo” (Tmax) was 0.5 h. The oral bioavailability result in data set [2] is listed as “high oral bioavailability”. In addition, in the data set with Multiple Sclerosis, the “safety and tolerability profile” value was “favorable safety and tolerability profile”.
